biological target: Gag-Pol polyprotein (Human immunodeficiency virus type 1 group M subtype B (isolate HXB2), UniProt P04585); assay: HIV-1 RT Colorimetric Assay
Experimental: The reaction mixture was set with template primer complex, RT enzyme and dNTPs in a lysis buffer with or without inhibitors. The reaction mixture was incubated at 37 °C for 1 h and then transferred to streptavidin-coated microtitre plate (MTP). The biotin-labeled dNTPs that were incorporated in the template due to activity ofRT, bound to streptavidin. The unbound dNTPs were washed using wash buffer and anti-DIG-POD was added to the MTP. The DIGlabeled dNTPs incorporated in the template were bound to an anti-DIG-POD antibody. The unbound anti-DIG-POD was washed again with washing buffer and the peroxide substrate (ABST) was added to the MTP. A colored reaction product was produced during the cleavage of the substrate catalyzed by a peroxide enzyme. The absorbance of the sample was determined as an optical density (OD) at 405 nm using a micro titer plate ELISA reader.

Compared with COc1ccc(N2CCN(C(=O)CCN3CCCc4cc(OC)ccc43)CC2)cc1 [3-(6-methoxy-3,4-dihydroquinolin-1(2H)-yl)-1-(4-(4-methoxyphenyl)piperazin-1-yl)propan-1-one (6f)], COc1ccc2c(c1)CCCN2CCC(=O)N1CCN(c2ccc(C)cc2)CC1 [3-(6-methoxy-3,4-dihydroquinolin-1(2H)-yl)-1-(4-p-tolylpiperazin-1-yl)propan-1-one (6c)] is lower in IC50: > 100 µM for the first, 28.5 µM for the second. The second is the more potent here.

Going from COc1ccc2c(c1)CCCN2CCC(=O)N1CCN(c2ccc(Cl)cc2)CC1 [1-(4-(4-chlorophenyl)piperazin-1-yl)-3-(6-methoxy-3,4-dihydroquinolin-1(2H)-yl)propan-1-one (6k)] to COc1ccc2c(c1)CCCN2CCC(=O)N1CCN(c2ccc(F)cc2)CC1 [1-(4-(4-fluorophenyl)piperazin-1-yl)-3-(6-methoxy-3,4-dihydroquinolin-1(2H)-yl)propan-1-one (6h)], the IC50 rises from 24.9 µM to 78.5 µM (3.2-fold).

First: COc1ccc2c(c1)CCCN2CCC(=O)N1CCN(c2ccccc2OC)CC1 [3-(6-methoxy-3,4-dihydroquinolin-1(2H)-yl)-1-(4-(2-methoxyphenyl)piperazin-1-yl)propan-1-one (6d)]
Second: COc1ccc2c(c1)CCCN2CCC(=O)N1CCN(c2ccccc2C)CC1 [3-(6-methoxy-3,4-dihydroquinolin-1(2H)-yl)-1-(4-o-tolylpiperazin-1-yl)propan-1-one (6b)]
The IC50 of the first is 4.2-fold higher: 52.8 µM for the first, 12.5 µM for the second. The second is the more potent here.

COc1ccc2c(c1)CCCN2CCC(=O)N1CCN(c2ccccc2F)CC1 [1-(4-(2-fluorophenyl)piperazin-1-yl)-3-(6-methoxy-3,4-dihydroquinolin-1(2H)-yl)propan-1-one (6g)] and COc1ccc2c(c1)CCCN2CCC(=O)N1CCN(c2ccccc2Cl)CC1 [1-(4-(2-chlorophenyl)piperazin-1-yl)-3-(6-methoxy-3,4-dihydroquinolin-1(2H)-yl)propan-1-one (6i)] are within 1.5-fold of each other in IC50: 47.5 µM for the first, 32.9 µM for the second.

Going from COc1ccc2c(c1)CCCN2CCC(=O)N1CCN(c2ccc([N+](=O)[O-])cc2)CC1 [3-(6-methoxy-3,4-dihydroquinolin-1(2H)-yl)-1-(4-(4-nitrophenyl)piperazin-1-yl)propan-1-one (6l)] to COc1ccc2c(c1)CCCN2CCC(=O)N1CCN(c2cccc(Cl)c2)CC1 [1-(4-(3-chlorophenyl)piperazin-1-yl)-3-(6-methoxy-3,4-dihydroquinolin-1(2H)-yl)propan-1-one (6j)], the IC50 falls from 82.7 µM to 18.6 µM (4.4-fold). The second is the more potent here.

Compared with COc1ccc2c(c1)CCCN2CCC(=O)N1CCN(c2ccccn2)CC1 [3-(6-methoxy-3,4-dihydroquinolin-1(2H)-yl)-1-(4-(pyridin-2-yl)piperazin-1-yl)propan-1-one (6n)], COc1ccc2c(c1)CCCN2CCC(=O)N1CCN(c2ccccc2)CC1 [3-(6-methoxy-3,4-dihydroquinolin-1(2H)-yl)-1-(4-phenylpiperazin-1-yl)propan-1-one (6a)] is 2-fold lower in IC50: 48.6 µM for the first, 24.3 µM for the second. The second is the more potent here.

Going from COc1cccc(N2CCN(C(=O)CCN3CCCc4cc(OC)ccc43)CC2)c1 [3-(6-methoxy-3,4-dihydroquinolin-1(2H)-yl)-1-(4-(3-methoxyphenyl)piperazin-1-yl)propan-1-one (6e)] to COc1ccc2c(c1)CCCN2CCC(=O)N1CCN(c2cccc(Cl)c2Cl)CC1 [1-(4-(2,3-dichlorophenyl)piperazin-1-yl)-3-(6-methoxy-3,4-dihydroquinolin-1(2H)-yl)propan-1-one (6o)], the IC50 falls from 58.2 µM to 14.5 µM (4-fold).

COc1ccc2c(c1)CCCN2CCC(=O)N1CCN(Cc2ccccc2)CC1 [1-(4-benzylpiperazin-1-yl)-3-(6-methoxy-3,4-dihydroquinolin-1(2H)-yl)propan-1-one (6m)] was tested, and the IC50 was > 100 µM.
